These results are taken from paper PMC10776879, “In vitro screening of topical formulation excipients for epithelial toxicity in cancerous and non-cancerous cell lines” (EXCLI Journal, 2023).

In brackets after ≈: the same amount, converted by molar mass.

In data set [1] the test system is primary skin fibroblasts (FB). The data set is described as follows: MTT cell viability assay. Type of data set: cell-based, human. As to conditions: Homo sapiens, Skin fibroblast, 24 h exposure, read-out: IC50 (μg/ml) [Mean, Range] FB, MTT. The protocol:
(§1) Cells were seeded into the 96-well cell culture plates in 100 μl of complete culture medium at the initial density of 2x10^4 (cells/ml). Cells were incubated under 5 % CO2 at 37 °C for 24 hours for adhering to the wells and medium was then replaced with 100 μl of fresh medium containing excipient solution at the required final concentration. Each concentration was tested in minimum of 5 replicates and control cells were exposed to the culture medium only.
(§2) After cell incubation for 24 h, the excipient-containing medium was removed, and 100 μl of MTT in PBS (5 mg/ml) diluted 1:10 in medium was then added in the dark. Plates were further incubated for 2-3 h, after which time the medium was removed and the purple formazan product was dissolved by adding 200 μl of DMSO to each well. Plates were then placed in a shaker for 5 min at room temperature and the absorbance of the resulting solutions was measured at 570 nm using a microplate reader (Multiskan™ FC Microplate Photometer). The effect of each treatment was calculated as the percentage of tetrazolium salt reduction by viable cells against the negative control (cells treated with culture medium only).
(§3) To assess the excipients' cytotoxicity, the dose-response effect of each excipient was measured against the cell lines. The cytotoxicity value for each concentration of the excipients was expressed as percentage of viability against the untreated control wells (the optical density of untreated cells was set at 100 % viability) to construct dose-response curves.
All IC50 values were expressed as µg/ml. The percentage viability was calculated as follows: […]

Data set [2] relates to primary skin fibroblasts (FB). Put plainly: Crystal violet (CV) cell viability assay. Type of data set: cell-based, human. To be noted: Homo sapiens, Skin fibroblast, 24 h exposure, read-out: IC50 (μg/ml) [Mean, Range] FB, CV. As to the method:
Cells were seeded into the 96-well cell culture plates in 100 μl of complete culture medium at the initial density of 2x10^4 (cells/ml). Cells were incubated under 5 % CO2 at 37 °C for 24 hours for adhering to the wells and medium was then replaced with 100 μl of fresh medium containing excipient solution at the required final concentration. Each concentration was tested in minimum of 5 replicates and control cells were exposed to the culture medium only. Fixed cells were stained with crystal violet dye solution to screen cell viability under treatment conditions. Cells are fixed by 4 % (v/v) paraformaldehyde in PBS for 10 minutes. Crystal violet assay of 0.05 % (v/v) is prepared by 1:4 dilution of the crystal violet stock solution (v/v) in 4 % (v/v) paraformaldehyde. The fixed cells were washed twice with PBS and covered with 250 µl crystal violet working solution. The plates were placed on a bench rocker with medium frequency (20 oscillations per minute) at room temperature for 20 minutes. The plates were emptied and washed under indirect stream of tap water for three times and inverted on filter paper. The plates were taped gently on the paper to remove any remaining liquid and air dried with no lid for minimum of 2 hr at room temperature. After the plates were photographed, blue dye was dissolved in DMSO and the optical density of each well was measured at 570 nm (OD570) with a plate reader (Multiskan™ FC Microplate Photometer). The effect of each treatment was calculated as the percentage of crystal viable staining of surviving attached cells, against the negative control (cells treated with culture medium only). To assess the excipients' cytotoxicity, the dose-response effect of each excipient was measured against the cell lines. The cytotoxicity value for each concentration of the excipients was expressed as percentage of viability against the untreated control wells (the optical density of untreated cells was set at 100 % viability) to construct dose-response curves. […] All IC50 values were expressed as µg/ml. The percentage viability was calculated as follows: […]

The subject of data set [3] is D24 human melanoma cells. The data set is described as follows: Reactive Oxygen Species evaluation with dihydrorhodamine 123. Type of data set: cell-based. To be noted: greatest applied concentration, 24 h. The protocol: (§4) The oxidant-sensitive dye, dihydrorhodamine 123 (DHR), was used to detect intracellular ROS level. Cells were plated in the flat bottom 96-well plates to sub confluent (60-70 %) then the medium was removed and replaced with the pre-warmed treatment solutions (medium containing different concentration of the excipients). After 24 hours incubation with treatment solutions, medium was removed and replaced with the 100 μl of pre-warmed dying buffer (Hank's balanced salt solution (HBSS) containing 12 µM DHR dye). Cells were incubated for 30 minutes at 37 °C in a humidified 5 % CO2 atmosphere in dark. The cellular fluorescence generated by the DHR oxidation was measured at 485 nm (OD 485) using a microplate reader (Multiskan™ FC Microplate Photometer). Hydrogen peroxide (H2O2) treatment (800, 400, 200, and 100 µM)/ (27, 13.5, 6.75, 3.4 µg/ml) was used as positive control and dying buffer with no cells as blank control. Data points were recorded every 10 minutes for 60 minutes and exported for analysis by Excel software. The ROS level is calculated as the difference between (Ftest/ Fcontrol) and expressed as percentages of the control value using this formulation: […]
(§5) where Ftest and Fcontrol are the fluorescence intensities of the cells exposed to the treatments and the cells with only medium, respectively. Fluorescence intensity of the blank wells were measured at every measurement time points and recorded to compare with the control wells.

Data set [4] relates to HaCaT human keratinocytes. The description is as above. Type of data set: cell-based. To be noted: greatest applied concentration, 24 h. As to the method: as §4, §5
The subject of data set [5] is WM1366 human melanoma cells. Described as above. Type of data set: cell-based. To be noted: greatest applied concentration, 24 h. The protocol: as §4, §5
The test system of data set [6] is WM164 human melanoma cells. The data set is described as above. Type of data set: cell-based. To be noted: greatest applied concentration, 24 h. The protocol:
as §4, §5

Data set [7] relates to primary skin fibroblasts (FB). The data set is described as above. Type of data set: cell-based, human. To be noted: greatest applied concentration, 24 h. As to the method: as §4, with “Hydrogen peroxide (H2O2) treatment (800, 400, 200, and 100 µM)/ (27, 13.5, 6.75, 3.4 µg/ml) was used as positive control and dying buffer with no cells as blank control.” left out
as §5

Data set [8] deals with human cell lines (WM164, WM1366, D24, HaCaT, FB). The data set is described as follows: MTT and CV cytotoxicity, statements over all tested cell lines. Type of data set: cell-based. As to the method: as §1, §2
Fixed cells were stained with crystal violet dye solution to screen cell viability under treatment conditions. Cells are fixed by 4 % (v/v) paraformaldehyde in PBS for 10 minutes. Crystal violet assay of 0.05 % (v/v) is prepared by 1:4 dilution of the crystal violet stock solution (v/v) in 4 % (v/v) paraformaldehyde. The fixed cells were washed twice with PBS and covered with 250 µl crystal violet working solution. The plates were placed on a bench rocker with medium frequency (20 oscillations per minute) at room temperature for 20 minutes. The plates were emptied and washed under indirect stream of tap water for three times and inverted on filter paper. The plates were taped gently on the paper to remove any remaining liquid and air dried with no lid for minimum of 2 hr at room temperature. After the plates were photographed, blue dye was dissolved in DMSO and the optical density of each well was measured at 570 nm (OD570) with a plate reader (Multiskan™ FC Microplate Photometer). The effect of each treatment was calculated as the percentage of crystal viable staining of surviving attached cells, against the negative control (cells treated with culture medium only).
as §3
The cytotoxicity of the excipients was expressed in terms of an IC50 values (concentration causing 50 % death of the cell population) (Goldberg and Frazier, 1989[37]). […] All IC50 values were expressed as µg/ml. The percentage viability was calculated as follows: […]

For data set [9] the following is noted: Table 1, physicochemical information of the excipients, source not given; cited from earlier work.

In the case of `CCOCCOCCO` [Transcutol®, diethylene glycol monoethyl ether], the IC50 in data set [1] is 5.54 µg/mL (≈ 41.3 µM); in data set [2] it was 5.97 µg/mL (≈ 44.5 µM); in data set [8] (Homo sapiens, over the tested cell lines, this study, read-out: IC50), 2 to 5.5 µg/mL (≈ 14.9 to 41 µM). Moreover, the “ROS production increase vs untreated control” value is given as 24.9% in [3]; 29.4% in data set [4]; 18.1% in [5]; 22.5% in data set [6]; 4.3% in data set [7]. This compound also came in with an Irritancy ranking in data set [8] (rank by MTT and CV IC50 over all cell lines, 1 = most cytotoxic) of 4. For the same compound, the HLB in data set [9] is on record as 4.
